Test results as given in PubChem BioAssay AID248 (DTP/NCI, 2004).
Toxic doses and inconclusive results are not listed. Cut-off read from the data, not from the text of the source: active = T/C of 150% or more; inactive = T/C below 125%.

Test system: L1210 leukemia ip in BDF1 mice, survival T/C
Assay: NCI In Vivo Anticancer Drug Screen. Data for tumor model L1210 Leukemia (intraperitoneal) in B6D2F1 (BDF1) mice
Settings: endpoint: mean survival time, higher = longer survival
In short: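 Ratio derived from survival: compound-dosed mice over vehicle-dosed mice, all bearing a transplantable tumor.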

[1] = dose: 100.0 mg/kg/injection, schedule: Q01DX001 (ip), vehicle: saline
[2] = dose: 200.0 mg/kg/injection, schedule: Q01DX001 (ip), vehicle: saline
[3] = dose: 100.0 mg/kg/injection, schedule: Q01DX009 (ip), vehicle: Klucel (hydroxypropylcellulose) (HPC)
[4] = dose: 100.0 mg/kg/injection, schedule: Q04DX002 (ip), vehicle: Klucel (hydroxypropylcellulose) (HPC)
[5] = dose: 200.0 mg/kg/injection, schedule: Q04DX002 (ip), vehicle: Klucel (hydroxypropylcellulose) (HPC)
[6] = dose: 400.0 mg/kg/injection, schedule: Q01DX001 (ip), vehicle: saline
[7] = dose: 100.0 mg/kg/injection, schedule: Q04DX003 (ip), vehicle: Klucel (hydroxypropylcellulose) (HPC)
[8] = dose: 200.0 mg/kg/injection, schedule: Q04DX003 (ip), vehicle: Klucel (hydroxypropylcellulose) (HPC)
[9] = dose: 400.0 mg/kg/injection, schedule: Q04DX003 (ip), vehicle: Klucel (hydroxypropylcellulose) (HPC)
[10] = dose: 100.0 mg/kg/injection, schedule: Q01DX009 (ip), vehicle: saline with Tween-80
[11] = dose: 100.0 mg/kg/injection, schedule: Q04DX003 (ip), vehicle: saline with Tween-80
[12] = dose: 200.0 mg/kg/injection, schedule: Q04DX003 (ip), vehicle: saline with Tween-80
[13] = dose: 400.0 mg/kg/injection, schedule: Q04DX003 (ip), vehicle: saline with Tween-80
[14] = dose: 200.0 mg/kg/injection, schedule: Q01DX009 (ip), vehicle: Klucel (hydroxypropylcellulose) (HPC)
[15] = dose: 400.0 mg/kg/injection, schedule: Q01DX009 (ip), vehicle: Klucel (hydroxypropylcellulose) (HPC)

Measured: T/C

CC(C)n1c2c([n+](C)c1/C=C/c1ccccc1)C(=O)c1ccccc1C2=O
inactive: dose: 1.0 mg/kg/injection, schedule: Q01DX009 (ip), vehicle: Klucel (hydroxypropylcellulose) (HPC) 106 % of control | dose: 1.0 mg/kg/injection, schedule: Q04DX003 (ip), vehicle: Klucel (hydroxypropylcellulose) (HPC) 107 % of control | dose: 2.0 mg/kg/injection, schedule: Q01DX009 (ip), vehicle: Klucel (hydroxypropylcellulose) (HPC) 101 % of control | dose: 2.0 mg/kg/injection, schedule: Q04DX003 (ip), vehicle: Klucel (hydroxypropylcellulose) (HPC) 96 % of control | dose: 4.0 mg/kg/injection, schedule: Q04DX003 (ip), vehicle: Klucel (hydroxypropylcellulose) (HPC) 86 % of control | dose: 5.0 mg/kg/injection, schedule: Q01DX001 (ip), vehicle: saline 103 % of control

CCOC(=O)c1cnc(C)[nH]c1=O
inactive: dose: 12.5 mg/kg/injection, schedule: Q01DX009 (ip), vehicle: saline 100 % of control | dose: 25.0 mg/kg/injection, schedule: Q01DX009 (ip), vehicle: saline 99 % of control | dose: 50.0 mg/kg/injection, schedule: Q01DX009 (ip), vehicle: saline 94 % of control | [1] 108 % of control | dose: 100.0 mg/kg/injection, schedule: Q01DX009 (ip), vehicle: saline 101 % of control | [2] 101 % of control

CCS(=O)(=O)C(Br)CBr (stereo unspecified)
inactive: dose: 25.0 mg/kg/injection, schedule: Q01DX009 (ip), vehicle: Klucel (hydroxypropylcellulose) (HPC) 100 % of control | dose: 50.0 mg/kg/injection, schedule: Q01DX009 (ip), vehicle: Klucel (hydroxypropylcellulose) (HPC) 114 % of control | [3] 105 % of control | [4] 103 % of control | [5] 95 % of control

COCC1OC(OC)C(NC(C)=O)C(OC)C1OC (stereo unspecified)
inactive: [1] 101 % of control | [2] 101 % of control | [6] 96 % of control

O=C(c1ccccc1)C1C(=O)N(c2ccccc2)C(=O)N1c1ccccc1 (stereo unspecified)
inactive: [1] 90 % of control | [2] 96 % of control | [6] 96 % of control

O=C1NC(=O)c2cc([N+](=O)[O-])cc3cccc1c23
inactive: [1] 94 % of control | dose: 100.0 mg/kg/injection, schedule: Q01DX009 (ip), vehicle: saline sonified 90 % of control | [7] 97 % of control | [2] 97 % of control | dose: 200.0 mg/kg/injection, schedule: Q01DX009 (ip), vehicle: saline sonified 95 % of control | [8] 87 % of control | [6] 90 % of control | dose: 400.0 mg/kg/injection, schedule: Q01DX009 (ip), vehicle: saline sonified 88 % of control | [9] 86 % of control

C/C=C\C(O)(C(=O)OC)c1ccccc1 (stereo unspecified)
inactive: dose: 100.0 mg/kg/injection, schedule: Q01DX001 (ip), vehicle: other 105 % of control | [1] 97 % of control | dose: 200.0 mg/kg/injection, schedule: Q01DX001 (ip), vehicle: other 107 % of control | [2] 92 % of control | dose: 400.0 mg/kg/injection, schedule: Q01DX001 (ip), vehicle: other 107 % of control | [6] 92 % of control

Cc1ccc(S(=O)(=O)N2C(=O)CCC2C(=O)O)cc1 (stereo unspecified)
inactive: dose: 100.0 mg/kg/injection, schedule: Q01DX001 (ip), vehicle: saline with Tween-80 100 % of control | [10] 98 % of control | dose: 200.0 mg/kg/injection, schedule: Q01DX001 (ip), vehicle: saline with Tween-80 96 % of control | dose: 200.0 mg/kg/injection, schedule: Q01DX009 (ip), vehicle: saline with Tween-80 96 % of control | dose: 400.0 mg/kg/injection, schedule: Q01DX001 (ip), vehicle: saline with Tween-80 97 % of control | dose: 400.0 mg/kg/injection, schedule: Q01DX009 (ip), vehicle: saline with Tween-80 102 % of control

Nc1ccccc1SC1CC(=O)N(c2ccc3c(c2)OCO3)C1=O (stereo unspecified)
inactive: dose: 100.0 mg/kg/injection, schedule: Q04DX002 (ip), vehicle: saline with Tween-80 93 % of control | dose: 200.0 mg/kg/injection, schedule: Q04DX002 (ip), vehicle: saline with Tween-80 101 % of control | dose: 400.0 mg/kg/injection, schedule: Q04DX002 (ip), vehicle: saline with Tween-80 86 % of control

O=C(O)COc1cc(Cl)ccc1Cl
inactive: [4] 95 % of control | [5] 95 % of control | dose: 400.0 mg/kg/injection, schedule: Q04DX002 (ip), vehicle: Klucel (hydroxypropylcellulose) (HPC) 100 % of control

CSc1ccc(NC(=O)Nc2nccs2)cc1
inactive: dose: 200.0 mg/kg/injection, schedule: Q04DX003 (ip), vehicle: saline sonified 87 % of control | dose: 400.0 mg/kg/injection, schedule: Q04DX003 (ip), vehicle: saline sonified 92 % of control

Nc1nc(=O)c2ccccc2s1
inactive: [1] 97 % of control | [11] 101 % of control | [2] 98 % of control | [12] 108 % of control | [6] 97 % of control | [13] 106 % of control

CCCCCCCCCCC[CH2][Hg][Cl]
inactive: dose: 6.25 mg/kg/injection, schedule: Q04DX003 (ip), vehicle: Klucel (hydroxypropylcellulose) (HPC) 93 % of control

C=C(Br)CNC(=O)OC
inactive: dose: 25.0 mg/kg/injection, schedule: Q04DX003 (ip), vehicle: saline with Tween-80 100 % of control | dose: 50.0 mg/kg/injection, schedule: Q04DX003 (ip), vehicle: saline with Tween-80 105 % of control | [11] 121 % of control

CCC(C)C(C=O)(CCN(C)CC)c1cccc2ccccc12 (stereo unspecified)
inactive: dose: 25.0 mg/kg/injection, schedule: Q04DX002 (ip), vehicle: saline with Tween-80 91 % of control | dose: 50.0 mg/kg/injection, schedule: Q04DX002 (ip), vehicle: saline with Tween-80 94 % of control

ClCCNCc1cccc(Nc2ccnc3cc(Cl)ccc23)c1
inactive: dose: 75.0 mg/kg/injection, schedule: Q01DX001 (ip), vehicle: carboxymethylcellulose (CMC) 103 % of control | dose: 150.0 mg/kg/injection, schedule: Q01DX001 (ip), vehicle: carboxymethylcellulose (CMC) 95 % of control

CN(C)CCC=C1c2ccccc2-c2ccccc21
inactive: dose: 15.0 mg/kg/injection, schedule: Q01DX015 (ip), vehicle: carboxymethylcellulose (CMC) 88 % of control | dose: 25.0 mg/kg/injection, schedule: Q01DX009 (ip), vehicle: saline with Tween-80 105 % of control | dose: 30.0 mg/kg/injection, schedule: Q01DX015 (ip), vehicle: carboxymethylcellulose (CMC) 92 % of control | dose: 50.0 mg/kg/injection, schedule: Q01DX001 (ip), vehicle: carboxymethylcellulose (CMC) 93 % of control | dose: 50.0 mg/kg/injection, schedule: Q01DX009 (ip), vehicle: saline with Tween-80 96 % of control | dose: 60.0 mg/kg/injection, schedule: Q01DX015 (ip), vehicle: carboxymethylcellulose (CMC) 92 % of control | dose: 100.0 mg/kg/injection, schedule: Q01DX001 (ip), vehicle: carboxymethylcellulose (CMC) 104 % of control | [10] 111 % of control | dose: 100.0 mg/kg/injection, schedule: Q04DX003 (ip), vehicle: saline 115 % of control | dose: 120.0 mg/kg/injection, schedule: Q01DX015 (ip), vehicle: carboxymethylcellulose (CMC) 92 % of control | dose: 200.0 mg/kg/injection, schedule: Q01DX001 (ip), vehicle: carboxymethylcellulose (CMC) 98 % of control | dose: 400.0 mg/kg/injection, schedule: Q01DX001 (ip), vehicle: carboxymethylcellulose (CMC) 101 % of control

CCOC(=O)CCC(=O)OCC
inactive: [1] 95 % of control | [2] 95 % of control | [6] 93 % of control

O=CNC(c1ccccc1)(c1ccccc1)c1ccccc1
inactive: [3] 99 % of control | [7] 102 % of control | [14] 91 % of control | [8] 94 % of control | [15] 91 % of control | [9] 102 % of control

CCCCCCCCCCNc1ccc(Cl)nn1
inactive: [11] 93 % of control | [12] 93 % of control | [13] 90 % of control

Cc1cccc(NC(=S)Nc2ccc(-c3ccc(NC(=S)Nc4cccc(C)c4)cc3)cc2)c1
inactive: dose: 100.0 mg/kg/injection, schedule: Q01DX009 (ip), vehicle: other 104 % of control | dose: 200.0 mg/kg/injection, schedule: Q01DX009 (ip), vehicle: other 106 % of control | dose: 400.0 mg/kg/injection, schedule: Q01DX009 (ip), vehicle: other 96 % of control

O=C(NCc1ccc(Cl)c(Cl)c1)Nc1ccccc1Cl
inactive: [3] 97 % of control | [14] 100 % of control | [15] 103 % of control
